Values after ≈ are worked out from the molar mass of the structure shown.
Tests used:
Colletotrichum truncatum [1] = experiment: Fungicidal activity against Colletotrichum capsici assessed as sporulation at 0.5 ug/ml incubated 16 hr photoperiod for 20 days by haemocytometer (reference value: 0.081 x 10^6 ml'-1); assay type: functional
Colletotrichum truncatum [2] = experiment: Fungicidal activity against Colletotrichum capsici assessed as spore germination at 5 ug/ml after 48 to 96 hr (reference value: 70.2 CFU); assay type: functional
Colletotrichum truncatum [3] = experiment: Fungicidal activity against Colletotrichum capsici infected chilli plant assessed as fruit yield measured per plot at 0.05% applied as spray on day 10 post inoculation and twice every 20 days measured on day 155 post sowing in field conditions (reference value: 8.25 to 9.3 kg); assay type: functional
Colletotrichum truncatum [4] = experiment: Fungicidal activity against Colletotrichum capsici assessed as mycelial biomass at 0.5 ug/ml incubated 16 hr photoperiod for 20 days (reference value: 675 mg); assay type: functional
Colletotrichum truncatum [5] = experiment: Fungicidal activity against Colletotrichum capsici assessed as reduction of polygalacturonase trans-eliminase production at 1 ug/ml incubated for 10 days measured up to 120 min by Ostwald-Fenske viscometric analysis (reference value: 40.8%); assay type: functional; parameters: scale not given: the % may be the effect or the level left
Colletotrichum truncatum [6] = experiment: Fungicidal activity against Colletotrichum capsici assessed as mycelial biomass at 5 ug/ml incubated 16 hr photoperiod for 20 days (reference value: 675 mg); assay type: functional
Colletotrichum truncatum [7] = experiment: Fungicidal activity against Colletotrichum capsici assessed as spore germination at 1 ug/ml after 48 to 96 hr (reference value: 70.2 CFU); assay type: functional
Colletotrichum truncatum [8] = experiment: Fungicidal activity against Colletotrichum capsici assessed as linear growth at 5 ug/ml incubated 16 hr photoperiod for 20 days (reference value: 90 mm); assay type: functional
Colletotrichum truncatum [9] = experiment: Fungicidal activity against Colletotrichum capsici assessed as sporulation at 50 ug/ml incubated 16 hr photoperiod for 20 days by haemocytometer (reference value: 0.081 x 10^6 ml'-1); assay type: functional
Capsicum annuum = experiment: Phytotoxicity in Capsicum annuum (pepper) at 0.05% applied as spray; assay type: organism-based; details: in vivo, other
Colletotrichum truncatum [10] = experiment: Fungicidal activity against Colletotrichum capsici assessed as linear growth at 50 ug/ml incubated 16 hr photoperiod for 20 days (reference value: 90 mm); assay type: functional
Colletotrichum truncatum [11] = experiment: Fungicidal activity against Colletotrichum capsici assessed as spore germination at 10 ug/ml after 48 to 96 hr (reference value: 70.2 CFU); assay type: functional
Colletotrichum truncatum [12] = experiment: Fungicidal activity against Colletotrichum capsici infected chilli plant assessed as percent disease index at 0.1% applied as spray on day 10 post inoculation and twice every 20 days measured on day 155 post sowing in field conditions (reference value: 51 to 56.5%); assay type: functional
Colletotrichum truncatum [13] = experiment: Fungicidal activity against Colletotrichum capsici assessed as spore germination at 5 ug/ml after 48 to 96 hr relative to control; assay type: functional
Colletotrichum truncatum [14] = experiment: Fungicidal activity against Colletotrichum capsici infected chilli plant assessed as percent disease index at 0.1% applied as spray on day 10 post inoculation and twice every 20 days measured on day 155 post sowing in green house conditions (reference value: 62.5 to 68.6%); assay type: functional
Puccinia allii = experiment: Fungicidal activity against Puccinia allii assessed as inhibition of spore germination; assay type: functional
Colletotrichum truncatum [15] = experiment: Fungicidal activity against Colletotrichum capsici infected chilli plant assessed as fruit yield measured per plot at 0.1% applied as spray on day 10 post inoculation and twice every 20 days measured on day 155 post sowing in field conditions (reference value: 8.25 to 9.3 kg); assay type: functional
Colletotrichum truncatum [16] = experiment: Fungicidal activity against Colletotrichum capsici infected chilli plant assessed as fruit length measured per plot at 0.1% applied as spray on day 10 post inoculation and twice every 20 days measured on day 155 post sowing in field conditions (reference value: 8 to 8.7 cm); assay type: functional
Colletotrichum truncatum [17] = experiment: Fungicidal activity against Colletotrichum capsici infected chilli plant assessed as fruit length at 0.1% applied as spray on day 10 post inoculation and twice every 20 days measured on day 155 post sowing in green house conditions (reference value: 6.8 to 7 cm); assay type: functional
Colletotrichum truncatum [18] = experiment: Fungicidal activity against Colletotrichum capsici infected chilli plant assessed as fruit mass measured per pot at 0.1% applied as spray on day 10 post inoculation and twice every 20 days measured on day 155 post sowing in green house conditions (reference value: 85.3 to 94.5 g); assay type: functional

SMILES | Activity (Colletotrichum truncatum [1]) | CFU (Colletotrichum truncatum [2]) | Crop_yield (Colletotrichum truncatum [3]) | Activity (Colletotrichum truncatum [4]) | Activity (Colletotrichum truncatum [5]) | Activity (Colletotrichum truncatum [6]) | CFU (Colletotrichum truncatum [7]) | Activity (Colletotrichum truncatum [8]) | Activity (Colletotrichum truncatum [9]) | Activity (Capsicum annuum) | Activity (Colletotrichum truncatum [10]) | CFU (Colletotrichum truncatum [11]) | PDI (Colletotrichum truncatum [12]) | Activity (Colletotrichum truncatum [13]) | PDI (Colletotrichum truncatum [14]) | MIC (Puccinia allii) | Crop_yield (Colletotrichum truncatum [15]) | Activity (Colletotrichum truncatum [16]) | Activity (Colletotrichum truncatum [17]) | Crop_yield (Colletotrichum truncatum [18])
CC1COC(Cn2cncn2)(c2ccc(Oc3ccc(Cl)cc3)cc2Cl)O1 (stereo not given) [DIFENOCONAZOLE] | 2.25 ×10⁶ /ml | 4.1 | 12.34 kg | 350 mg | 12.5% | 118 mg | 7.8 | 27.4 mm | 0 ×10⁶ /ml | Non-toxic | 9 mm | 0 | – | – | – | – | – | – | – | –
CCCC1COC(Cn2cncn2)(c2ccc(Cl)cc2Cl)O1 (stereo not given) [PROPICONAZOLE] | 1.3 ×10⁶ /ml | – | 13.1 kg | 240 mg | 8.5% | 53 mg | 3.3 | 12.61 mm | 0 ×10⁶ /ml | – | 9 mm | 0 | 13.5% | 0% | 17.5% | 50 µg/mL (≈ 146 µM) | 17.5 kg | 10.2 cm | 8 cm | 165.6 g

Source: ChEMBL document CHEMBL3044635, “Effect of propiconazole and difenoconazole on the control of anthracnose of chilli fruits caused by Colletotrichum capsici” (Crop Prot, 2006)
